Calls of active or inactive are those of the source. No rule for the calls is given here.
What follows are compounds tested on Jurkat NF-kB reporter, luminescence (assay: NF-kB reporter inhibition in Jurkat cells, dose response, selectivity assay for B-cell receptor NF-kB inhibitor project, cell-based, luminescence (AID 489006)).
`CC1(C)CC2CC(C)(CN2S(=O)(=O)c2ccc(C(=O)Nc3ccc(S(=O)(=O)N4CCOCC4)cc3)cc2)C1` (stereo not drawn) was tested, and the IC50 was > 80 µM (inactive).
`Cc1ccc(-c2c[n+]3c(n2-c2ccccc2)SCC3)cc1` was tested, and the IC50 was > 80 µM (inactive).
With `Cc1ccccc1-n1c(SCc2c(C)noc2C)nnc1-c1c[nH]c2ccccc12` the IC50 was > 80 µM (inactive).
`Cc1nn(C(C)(C)C)c(OC(=O)c2ccc(Br)o2)c1Sc1ccccc1` was tested, and the IC50 was > 80 µM (inactive).
`CCOc1ccc(-c2nc(CSCC(=O)NC3CC3)c(C)o2)cc1` was tested, and the IC50 was > 80 µM (inactive).
For `CCn1c(=O)c2cc(C(=O)NCc3cccs3)sc2c2ccccc21`, the IC50 was > 80 µM (inactive).
For `Oc1cc(O)cc(-c2cc3ccc(O)cc3o2)c1`, the IC50 was > 80 µM (inactive).
With `CNC(=O)CSc1nc2nn(-c3ccccc3)c(=O)c-2c2n1CCCCC2` the IC50 was > 80 µM (inactive).
`O=C(CN1C(=O)c2ccccc2S1(=O)=O)c1ccc(Cl)cc1Cl` was tested, and the IC50 was 0.78 µM.
`CCOC(=O)N1CCN(c2ncnc3c2[nH]c2ccc(OC)cc23)CC1` was tested, and the IC50 was 61 µM (inactive).
With `COc1ccc(C(=O)N/N=C/c2ccc(OC)c(CN3CCCc4ccccc43)c2)cc1` the IC50 was > 80 µM (inactive).
With `COc1cc(NC(=O)c2ccco2)c(OC)cc1NC(=O)c1cc(OC)c(OC)c(OC)c1` the IC50 was 23 µM (inactive).
With `C/C=C(/C)C(=O)OC1Cc2c(ccc3ccc(=O)oc23)OC1(C)C` (stereo not drawn) the IC50 was > 80 µM (inactive).
`COc1ccc(/C=C2/SC(=S)N(CCC(=O)O)C2=O)cc1` was tested, and the IC50 was 0.4 µM.
In the case of `COc1ccc(/C=C2\SC(=S)N(CCC(=O)Nc3ccc(O)cc3)C2=O)cc1`, the IC50 is reported as > 80 µM (inactive).
For `O=[N+]([O-])c1ccc(Sc2cc[n+]([O-])c3ccccc23)c([N+](=O)[O-])c1`, the IC50 was 6.03 µM.
In the case of `COc1ccccc1/C=C1\SC(=S)N(CCC(=O)Nc2cc(C)on2)C1=O`, the IC50 is reported as 54.7 µM (inactive).
`COc1ccc(-n2ncc3c(N4CCC(C(N)=O)CC4)ncnc32)cc1` was tested, and the IC50 was > 80 µM (inactive).
`Cc1ccc(-c2cn(-c3ccccc3)c3[n+]2CCCS3)cc1` was tested, and the IC50 was > 80 µM (inactive).
With `CCCS(=O)(=O)Nc1cccc(-c2ccc3nnc(C)n3n2)c1` the IC50 was > 80 µM (inactive).
`COc1cc(C[C@@H]2C(=O)OC[C@H]2Cc2ccc(OC)c(OC)c2)ccc1O` was tested, and the IC50 was > 80 µM (inactive).
With `COc1cc(-c2nc3n(n2)C(c2ccc(F)cc2)C2=C(CCCC2=O)N3)cc(OC)c1OC` (stereo not drawn) the IC50 was > 80 µM (inactive).
In the case of `O=C(N/N=C/c1cccnc1)c1cc(-c2ccccc2OCc2ccccc2)n[nH]1`, the IC50 is reported as > 80 µM (inactive).
Work on `O=C(CCl)N(c1ccc(Cl)cc1)c1c[nH]c2ccccc12` yielded an IC50 of 0.85 µM.
`O=C(CCl)N1CCN(S(=O)(=O)c2ccc3c(c2)CCC3)CC1` showed an IC50 of 2.16 µM.
With `O=C(CCCN1C(=O)S/C(=C/C=C/c2ccccc2)C1=O)Nc1ccc(C(=O)O)cc1` the IC50 was > 80 µM (inactive).
For `O=C(Nc1cccc(S(=O)(=O)Nc2ccc(Cl)cc2)c1)c1ccc(Cl)nc1`, the IC50 was 25.7 µM (inactive).
For `CCC(C)(C)c1ccc(OCCCC[n+]2ccccc2)c(C(C)(C)CC)c1`, the IC50 was 5.79 µM.
`Cn1nc(-c2ccc(Cl)cc2)c2cc(C(=O)N3CCCC3)sc21` was tested, and the IC50 was > 80 µM (inactive).
For `COc1ccc(-c2noc(N3CCC(C(=O)Nc4ccc(OC)c(OC)c4)CC3)n2)cc1`, the IC50 was > 80 µM (inactive).
In the case of `O=C(CCCN1C(=O)/C(=C/c2ccccc2Cl)SC1=S)NNC(=O)c1ccc(Cl)cc1`, the IC50 is reported as 2.04 µM.
`C=CCOC(=O)COc1cc(C)cc2oc(=O)c3c(c12)CCC3` was tested, and the IC50 was > 80 µM (inactive).
`CCN(CC)CCOC(=O)c1ccc(NC(=O)CCCN2C(=O)S/C(=C/c3ccc(OC)cc3)C2=S)cc1` gave an IC50 of 1.48 µM.
For `COc1ccc(-c2n(Cc3ccccc3)c3ccccc3[n+]2Cc2ccccc2)cc1`, the IC50 was 42.7 µM (inactive).
In the case of `CCN1C(=O)Nc2cccc3cccc1c23`, the IC50 is reported as 36.2 µM (inactive).
With `COC(=O)C(C)Oc1cc(C)cc2oc(=O)c3c(c12)CCC3` (stereo not drawn) the IC50 was 49.9 µM (inactive).
`OCCN1CCN(C(=S)c2ccc(-c3ccccc3)cc2)CC1` gave an IC50 of 7.07 µM.
With `CC(C)(C)c1ccc(-c2nnc(SCC(=O)NC3CC3)o2)cc1` the IC50 was > 80 µM (inactive).
`CC(=O)C1=NN(c2ccccc2)C(c2cccs2)N1c1ccc(N(C)C)cc1` (stereo not drawn) was tested, and the IC50 was > 80 µM (inactive).
With `NC(=S)N=Nc1c(O)n(Cc2ccccc2)c2ccccc12` the IC50 was 23.9 µM (inactive).
`Cc1ccc(-n2c(-c3ccccc3)c[n+]3c2CCc2ccccc2-3)c(C)c1` gave an IC50 of 12.5 µM.
`CCc1ccc(/C=C2\SC(=S)N(CCC(=O)Nc3cc(C)on3)C2=O)cc1` gave an IC50 of 4.06 µM.
Compound `CC1=CC(C)(C)Nc2ccc(OC(=O)C(C)N3C(=O)c4ccccc4C3=O)cc21` (stereo not drawn) has an IC50 of 1.19 µM.
`Cc1c(CCC(=O)N2CCC[C@H]2C(=O)O)c(=O)oc2cc3oc4c(c3cc12)CCCC4` was tested, and the IC50 was > 80 µM (inactive).
For `COc1cc(-c2cc(=O)c3c(O)c(OC)c(OC)c(OC)c3o2)cc(OC)c1OC`, the IC50 was > 80 µM (inactive).
With `COc1ccc(/C=C2\SC(=S)N(CCCC(=O)NNC(=O)c3ccccc3O)C2=O)cc1` the IC50 was 0.58 µM.
For `Cc1[nH]c2ccccc2c1/C=N/Nc1nc(Nc2ccc(F)cc2)nc(N2CCOCC2)n1`, the IC50 was 20.9 µM (inactive).
With `COc1ccc(NS(=O)(=O)c2cc(NC(=O)c3cc(=O)c4ccccc4o3)ccc2OC)cc1` the IC50 was > 80 µM (inactive).
`O=C(CCCN1C(=O)S/C(=C\C=C\c2ccccc2)C1=O)Nc1ccc(O)cc1` was tested, and the IC50 was > 80 µM (inactive).
For `Cc1ccc(C2(c3ccc(C)cc3)CC2C(=O)Nc2ccc([N+](=O)[O-])cc2O)cc1` (stereo not drawn), the IC50 was 50.1 µM (inactive).
In the case of `CCCCn1c2c(c(=N)c3ccccc31)CCC2`, the IC50 is reported as > 80 µM (inactive).
For `O=C(NNC(=O)C12CC3CC(CC(Br)(C3)C1)C2)c1ccccc1F`, the IC50 was > 80 µM (inactive).
In the case of `Cc1ccc(S(=O)(=O)Nc2ccc3c(c2)n(C)c(=O)n3C)cc1`, the IC50 is reported as 73 µM (inactive).
For `CCN(CC(=O)Nc1c(F)cccc1F)C(=O)C1(c2ccccc2)CC1`, the IC50 was > 80 µM (inactive).
In the case of `N=c1c2c(n(Cc3ccc(Cl)c(Cl)c3)c3c1CCC3)CCCC2`, the IC50 is reported as 9.18 µM.
`COc1ccc(/C=C2\SC(=S)N(CCCC(=O)Nc3ccc(O)cc3)C2=O)cc1` was tested, and the IC50 was > 80 µM (inactive).
In the case of `CCC(=O)N(C1=C(NC)C(=O)c2ccccc2C1=O)C(C)C`, the IC50 is reported as 45.8 µM (inactive).
`COc1ccc(-c2ccc(C)cc2)cc1[C@H]1[C@H]2C=CC[C@@H](C)[C@@H]2C(=O)N1Cc1ccccc1` was tested, and the IC50 was > 80 µM (inactive).
`Cc1ccc(Sc2cc(NCCCO)c([N+](=O)[O-])c3nonc23)cc1` was tested, and the IC50 was > 80 µM (inactive).
For `O=C(Cc1cccc2ccccc12)Nc1ccc(-c2cc3ccccc3oc2=O)cc1`, the IC50 was 14.8 µM.
`CCOC(=O)C1CCN(c2ncnc3c2cnn3-c2ccc(OC)cc2)CC1` was tested, and the IC50 was > 80 µM (inactive).
For `COc1ccc(C2=NCc3nnc(C)n3-c3ccc(Cl)cc32)cc1Cl`, the IC50 was 36.4 µM (inactive).
Compound `CCOC(=O)Cc1ccc(NC(=O)c2ccc(C(C)(C)C)cc2)cc1` has an IC50 of 0.25 µM.
`N#Cc1ccccc1COc1ccc(/C=C/C(=O)O)cc1` was tested, and the IC50 was 1.48 µM.
Compound `Cc1c(CCC(=O)NCCCn2ccnc2)c(=O)oc2c(C)c3oc4c(c3cc12)CCCC4` has an IC50 of 11 µM.
`O=C(CCCN1C(=O)/C(=C/c2ccccc2Cl)SC1=S)NNC(=O)c1ccc(Cl)cc1Cl` was tested, and the IC50 was 0.76 µM.
In the case of `CC(C)c1ccc(/C=C2\SC(=S)N(CCC(=O)NCCCn3ccnc3)C2=O)cc1`, the IC50 is reported as 2.64 µM.
In the case of `Cn1c(=O)n(C)c2cc(/C=C3/NC(=O)N(Cc4ccccc4)C3=O)ccc21`, the IC50 is reported as > 80 µM (inactive).
`Cn1c(=O)cc(OCCCC(=O)N2CCCCC2)c2ccccc21` was tested, and the IC50 was > 80 µM (inactive).
With `O=C(Nc1ccc(NC(=O)c2cc3ccccc3o2)cc1)c1ccc2c(c1)OCCO2` the IC50 was > 80 µM (inactive).
In the case of `COc1cc(/C(C)=N\NC(N)=S)cc(OC)c1OC`, the IC50 is reported as 72.5 µM (inactive).
Work on `O=C(O)CCSc1ncnc2sc(-c3ccccc3)cc12` yielded an IC50 of 1.07 µM.
With `CCOc1ccc(/C=C2\SC(=S)N(CCC(=O)Nc3cccc(C(=O)O)c3)C2=O)cc1` the IC50 was > 80 µM (inactive).
In the case of `Cc1cc(C)cc(OCc2nnc(SCC(=O)c3ccccc3)o2)c1`, the IC50 is reported as > 80 µM (inactive).
With `Cc1ccc(S(=O)(=O)N2CCCCC2CCNC(=O)C(=O)NCc2ccncc2)cc1` (stereo not drawn) the IC50 was > 80 µM (inactive).
Work on `Cc1nc2cc(-c3ccc(Cl)cc3)nn2c(C)c1CCC(=O)NCc1ccco1` yielded an IC50 of 0.34 µM.
`CCc1ccc(/C=C2/SC(=S)N(CCC(=O)Nc3ccc(C(=O)O)cc3)C2=O)cc1` was tested, and the IC50 was > 80 µM (inactive).
Work on `CC(C)(C)c1ccc(-c2noc(CCC(N)=O)n2)cc1` yielded an IC50 of under 0.16 µM.
`CCn1c(=O)cc(OCC(=O)NCc2ccc(C)o2)c2ccccc21` was tested, and the IC50 was > 80 µM (inactive).
In the case of `CCSc1ncc(Cl)c(C(=O)Nc2sc3c(c2C(=O)NCc2cccnc2)CCCC3)n1`, the IC50 is reported as > 80 µM (inactive).
`COc1ccc(C(=O)Nc2ccccc2C(=O)NCc2ccco2)cc1OC` was tested, and the IC50 was 61.7 µM (inactive).
For `CCn1c(=O)cc(OCC(=O)Nc2ccc(OC)c(OC)c2)c2ccccc21`, the IC50 was > 80 µM (inactive).
For `COC(=O)C1=C(c2ccc(-c3ccccc3)c(F)c2)C[C@@H]2CC[C@H]1N2C(=O)N1CCCC1`, the IC50 was 35.8 µM (inactive).
For `Cc1cc(N(C)C)ccc1N=Nc1ccc(N)cc1`, the IC50 was > 80 µM (inactive).
With `Fc1ccc(C2=Nn3c(nnc3-c3n[nH]c4c3CCC4)SC2)cc1` the IC50 was > 80 µM (inactive).
In the case of `CCCCCC/C=C/c1ccc(OC)c([C@H]2[C@H]3C=CC[C@@H](C)[C@@H]3C(=O)N2Cc2ccccc2)c1`, the IC50 is reported as > 80 µM (inactive).
For `CCc1ccc2[nH]c3nc(N/N=C/c4cccc(O)c4)nnc3c2c1`, the IC50 was > 80 µM (inactive).
With `CN(C)C(=O)CCc1nc(-c2ccc(C(C)(C)C)cc2)no1` the IC50 was > 80 µM (inactive).
In the case of `C=CCn1c(O)c(C(CC)=NC(C)c2ccccc2)c(=O)[nH]c1=O` (stereo not drawn), the IC50 is reported as 51.3 µM (inactive).
`O=C(Nc1cccc(Br)c1)c1ccc2c(c1)SC1=NS(=O)(=O)CCN12` was tested, and the IC50 was > 80 µM (inactive).
With `CCN(CC(=O)Nc1c(F)cccc1F)C(=O)c1cc(S(=O)(=O)N2CCOCC2)ccc1N1CCCC1` the IC50 was > 80 µM (inactive).
`COc1ccc(C=C(C(C)=O)C(C)=O)cc1OC` gave an IC50 of 6.23 µM.
`C=CCn1c(O)c(C(C)=NC(C)c2ccccc2)c(=O)[nH]c1=O` (stereo not drawn) was tested, and the IC50 was > 80 µM (inactive).
With `CCN(CC)c1ccc(/C=C2/C(=O)ON=C2C)cc1` the IC50 was 19.3 µM.
`Cn1nnnc1Sc1ncnc2scc(Br)c12` was tested, and the IC50 was 1.13 µM.
In the case of `C/C(=N\Nc1nc(Nc2ccccc2)nc(N2CCOCC2)n1)c1cccs1`, the IC50 is reported as > 80 µM (inactive).
For `CC(C)(C)C(=O)/C(=C/c1ccncc1)n1cncn1`, the IC50 was 2.89 µM.
With `Cc1nnc2c3ccccc3c(-c3ccccc3)nn12` the IC50 was > 80 µM (inactive).
